{
  "source": "patent US7618657B2",
  "about": "“Active ingredients preparation and single compound purification from traditional Chinese herbal medicine Fructus Trichosanthis and uses thereof” (priority 2003, dated 2009)",
  "key": {"K562 cells [1]": {"test_system": "K562 cells", "experiment": "TMB staining of hemoglobin positive K562 cells", "type": "cell-based, human", "conditions": "six days culture, hydroxyurea (positive control) 25.0 μg/ml", "method": "K562 cells (ATCC) were cultured in RPMI 1640 (Gibco) supplemented with 10% fetal calf serum (FCS, Gibco) and 1% PSN (Gibco). The cultures were maintained under a humidified atmosphere with 95% air/5% CO2 at 37° C.\nThe hemoglobin positive K562 cells can be identified by 3,3′,5,5′-tetramethylbenzidine (TMB, Sigma) staining. In brief, 10 μl/cell suspension was pipetted out and mixed with 10 μl TMB working solution. Five minutes later, cells were scored as positive (blue) or negative (pale yellow) at 200× microscope.\nBefore the assay, K562 cells were scored first by TMB staining to ensure there was no selfdifferentiation (TMB positive cell percentage less than 1.0%). 100 μl/well complete RPMI 1640 was added into a 96-well plate, and 180 μl was added in the first well. 20 μl Trichosanthes extraction components was added into the first well immediately. Then 100 μl of the mixture was transferred to the next well. By such one half dilution method, serial dilutions of Trichosanthes extraction components were got.\n100 μl K562 cell suspension with the density of 4×10^4 cells/ml was add into each well of the 96-well plate. […] Then the hemoglobin positive cells were recorded by TMB staining.\nDose-response effect of the lead compound from Trichosanthes was studied on K562 cells which were cultured and assayed as described in example 3. […] Then the hemoglobin positive cells were recorded by TMB staining."}, "K562 cells [2]": {"test_system": "K562 cells", "experiment": "FACS analysis of fetal hemoglobin expression in treated K562 cells", "type": "cell-based, human", "conditions": "HU 25 mg/ml, 6 days, FIG. 7", "method": "K562 cells were cultured with hydroxyurea (HU, 25 mg/ml) and the lead compound from Trichosanthes (12.5 ng/ml) for 6 days. Then the cells were conjugated with PE labeled mouse anti human fetal hemoglobin monoclonal antibodies (Becton Dickinson) followed by FACS analysis. In brief, 1×10^6 cells were collected in a 15 ml falcon tube and centrifuged in 150 rpm for 5 min. The cell pallet was washed with PBS. Then cells were fixed by gently mixing with 1 ml PBS with 4% formaldehyde (37-40%, Merck) for 1 hr at room temperature. The fixed cells were washed once with PBS and then were resuspended in 100 μl 0.01% Triton X-100 (Merck) in PBS/0.1% BSA (Sigma). 20 μl monoclonal antibody was added in, followed by mixing thoroughly and incubating for 30 min in darkness at room temperature, with frequent gentle shaking. Finally the cells were washed with 1× PBS with 0.1% sodium azide once and kept in 4° C. until analysis."}},
  "data": [
    {"smiles": "NC(=O)NO", "note": "[Hydroxyurea, hydroxyurea]", "values": [
      {"measurement": "TMB Positive Cell Percentage", "setting": "K562 cells [1]", "result": "66.7 ± 4.4", "unit": "%"},
      {"measurement": "expression of fetal hemoglobin (FACS, PE labeled anti human fetal hemoglobin antibody)", "setting": "K562 cells [2]", "result": "induced"}
    ]}
  ]
}
